One experiment relates to rat DRG neurons. Nature of the experiment: Mitochondrial movement in cultured DRG neurons. As to conditions: 100 nM co-administered with cisplatin, 3 hours. It counts as cell-based. As for the experimental part:
DRG neurons (Lonza) were cultured for 5-7 days before the mitochondrial transport assay. 24 hrs prior to chemotherapy treatment cells were infected with Bacmam 2.0, which labeled mitochondria with GFP. Cells were treated with cisplatin (20-80 μM)+/−compound 001 (100 nM) for 3 hours. Imaging was performed using Zeiss 3i system. Time lapse images were acquired every 2 seconds over the course of 2 min. Image analysis was performed using Fiji and Multiple Kymograph plugin.

The subject of experiment [1] is cisplatin-induced mechanical hyperalgesia. As to the kind of experiment: Von Frey test for mechanical hyperalgesia in cisplatin-treated mice. Format: in vivo. The note with it: for effect on existing cisplatin-induced mechanical hyperalgesia: 7 daily doses starting 3 days after last cisplatin dose. As for the experimental part: Adult male C57/Bl6J mice received cisplatin intraperitoneally (i.p.) (2.3 mg/kg) daily for five days, followed by five days rest and a second round of five days of cisplatin treatment. Three days after the last dose of cisplatin, mice received the HDAC6 inhibitor, compound 001, a compound of Formula (I), i.p. for seven to fourteen days at 3 mg/kg or 10 mg/kg.
To quantify signs of cisplatin-induced pain, the von Frey test was used (see below) which measures the decrease in threshold to induce a withdrawal response to a mechanical stimulus (hyperalgesia, one of the characteristics of CIPN). To assess cisplatin-induced numbness, the adhesive removal test (ART) was used. The time it took for the mouse to have a behavioral response to the patch (i.e. shaking or attempted removal) was recorded as a measure of sensory deficit or numbness. To determine if behavioral changes were due to altered general activity or motor function, the locomotor activity (LMA) test and the rotarod test was used. For LMA mice were placed in an open-field testing cage and movement was measured for 5 minutes. For the rotarod, mice were trained for two days and then tested on the rotarod (with increasing speeds) for 5 minutes. Time on the rotarod was recorded.
Allodynic response to tactile stimulation is assessed using the Von Frey apparatus (Touch Test®).
The animal is placed in an enclosure and positioned on a metal mesh surface, but allowed to move freely. The animals' cabins are covered with red cellophane to diminish environmental disturbances. The test begins after a cessation of exploratory behavior. The set of Von Frey monofilaments provide an approximate logarithmic scale of actual force and a linear scale of perceived intensity.
The operating principle: when the tip of a fiber of given length and diameter is pressed against the skin at right angles, the force of application increases as long as the researcher continues to advance the probe until the fiber bends. After the fiber bends, the probe continues to advance, causing the fiber to bend more, but without additional force being applied.
The Touch Test™ Sensory Evaluator can be used on the plantar surfaces of the rat's foot. The animal indicates sensation by pulling back its paw. The minimal force needed to elevate the withdrawal reflex is considered/designated as the value of reference. In order to achieve paw withdrawal, the pressure applied is sometimes greater than 60 g, often requiring the researcher to apply enough pressure with the Von Frey filament to actually lift the paw of the naive animal. Decreases in force needed to induce withdrawal are indicative of hyperalgesia, as the force applied is a non-painful stimulus under normal conditions.
Cisplatin (TEVA Pharmaceuticals, North Wales, Pa.) was diluted in sterile saline and administered intraperitoneally (i.p.) at a dose of 2.3 mg/kg daily for 5 days, followed by 5 days of rest, and a second round of 5 doses for a total cumulative dose of 23 mg/kg cisplatin. It was shown that this dosing schedule induces mechanical hyperalgesia in mice (Qi-Liang Mao-Ying A K, et al. The anti-diabetic drug metformin protects against chemotherapy-induced peripheral neuropathy in a mouse model. Clinical Cancer Research. 2014; Krukowski K, et al. Prevention of chemotherapy-induced peripheral neuropathy by the small-molecule inhibitor pifithrin-mu. Pain. 2015; 156(11):2184-92). HDAC6 inhibitor, compound 001, (Acetylon Pharmaceuticals, Boston, Mass.) was dissolved in 20% 2-hydroxypropyl-β-cyclodextrin+0.5% hydroxypropyl methylcellulose (Sigma-Aldrich, St. Louis, Mo.) in water and administered i.p. at a dose of 10 mg/kg or 3 mg/kg. […]

The test system of experiment [2] is mitochondrial respiration in tibial nerves. Nature of the experiment: Mitochondrial bioenergetics analysis of tibial nerves (XF24). Format: in vivo, mice. As for the experimental part:
Tibial nerves were collected on experimental day 30, when the mice have received 2 rounds of cisplatin treatment and 11 injections of compound 001. Tissues were placed into islet capture XF24 microplate (Seahorse Bioscience, North Billerica, Mass.) in XF media with the addition of 5.5 mM glucose, 0.5 mM sodium pyruvate and 1 mM glutamine. Oligomycin (12 μM), FCCP (Carbonyl cyanide 4-(trifluoromethoxy)phenylhydrazone, 20 μM), and Rotenone/Antimycin A (20 μM each) (Sigma-Aldrich, St. Louis, Mo.) were injected sequentially during the assay. An assay cycle with a combination of 3-min mix, 3-min wait, and 4-min measure was repeated 4 times for baseline rates and after each port injection. After the respiratory measures, tissues were harvested and the oxygen consumption rate (OCR) values were normalized to the total protein content of each well. Basal respiration, ATP-linked respiration, proton leak, and maximal respiratory capacity were determined as described previously (Brand M D, and Nicholls D G. Assessing mitochondrial dysfunction in cells. The Biochemical journal. 2011; 435(2):297-312; Ma J, et al. Heat shock protein 70 is necessary to improve mitochondrial bioenergetics and reverse diabetic sensory neuropathy following KU-32 therapy. The Journal of pharmacology and experimental therapeutics. 2014; 348(2):281-92). Briefly, the initial measurements provide a measure of the basal OCR in the absence of respiratory chain poisons. The amount of basal OCR that is coupled to ATP production was determined by addition of the ATP synthase inhibitor oligomycin, which decreased the basal OCR. […] Next, maximal respiratory capacity (MRC) was assessed by addition of the protonophore FCCP, which dissipates the mitochondrial membrane potential and promotes maximal OCR. Lastly, non-mitochondrial respiration was determined by the addition of rotenone and antimycin A, which inhibit the activities of mitochondrial respiratory chain complex I and complex III respectively.

Where [3] appears, read: 2 rounds of cisplatin and 11 injections of compound.

`O=C(NO)c1cnc(NC2(c3ccccc3)CCC(F)(F)CC2)nc1` [compound 001]: the “percentage of moving mitochondria in axons (mitochondrial transport)” value in the experiment on rat DRG neurons is given as “prevented this cisplatin-induced decrease in mitochondrial transport”. Besides, the “effect on existing cisplatin-induced mechanical hyperalgesia” value in experiment [1] (3 mg/kg i.p.) is “did not”. The “effect of prolonged treatment on mechanical hyperalgesia” value in experiment [1] (10 mg/kg for two consecutive weeks starting 3 days after last cisplatin dose) is “complete and sustained recovery from mechanical hyperalgesia”. Further, the “duration of beneficial effect of prolonged regimen” value in experiment [1] (10 mg/kg for two consecutive weeks, followed to experiment termination) is “maintained until at least one month after the last dose”. Besides, the “effect on existing cisplatin-induced mechanical hyperalgesia” value in experiment [1] (10 mg/kg i.p.) is on record as “effectively relieved cisplatin-induced mechanical hyperalgesia”. Further, the “time after first dose at which effect on mechanical allodynia was first detected” value in experiment [1] (10 mg/kg i.p., cisplatin-treated mice) worked out at 24 h. Further, the “mechanical sensitivity, compound alone” value in experiment [1] (10 mg/kg, without cisplatin) is “did not alter mechanical sensitivity”. The “time after last dose until which beneficial effect on mechanical hyperalgesia was maintained” value in experiment [1] (7 daily doses of 10 mg/kg) is on record as 4 days. Further, the “prevention of development of mechanical hyperalgesia” value in experiment [1] (administered i.p. one hour prior to each dose of cisplatin) was “prevented the development of mechanical hyperalgesia”. Besides, the “effect of second round of treatment on mechanical hyperalgesia” value in experiment [1] (second round of 7 daily injections, 10 mg/kg, after 7 days rest) is listed as “transiently reversed cisplatin-induced mechanical hyperalgesia”. Also, in experiment [2] (setting [3]), the “mitochondrial respiration (basal, ATP-linked, proton leak, maximal) in tibial nerves” value was “normalized all aspects of the cisplatin-induced decrease in mitochondrial respiration” and the “non-mitochondrial respiration in tibial nerves” value is “not altered”. Besides, the “mitochondrial bioenergetics, compound alone” value in experiment [2] (without cisplatin) is recorded as “did not have any effect on mitochondrial bioenergetics”.

The values are drawn from patent US11013740B2, “Histone deacetylase 6 selective inhibitors for the treatment of cisplatin-induced peripheral neuropathy” (REGENACY PHARMACEUTICALS, LLC, priority 2015, dated 2021).
